Reference: patent US20080200393A1, “Method and Composition For Treating Angiogenesis and For Preventing Cancer Progression and Metastasis Comprising a Prostate Secretory Protein (Psp94) Family Member” (Ambrillia Biopharma Inc., priority 2004, published 2008)
Where no end group is shown, it is not given here.

Columns and labels:
Type in all cases: cell-based
[1] = tested on: MMP-9; assay: Western blot of MMP-9 in MatLyLu cell culture media; details: MatLyLu cells, 100 ug/ml, 500 ug/ml and 1 mg/ml, 72 hrs
Experimental: A separate western blot experiment was performed in which MatLyLu cells were treated with 100 ug/ml, 500 ug/ml and 1 mg/ml of the PCK3145 derivative for 72 hrs. At the end of the experiment, the media were collected and concentrated 5 times using Amicon centrifugal filter devices (3500 molecular weight cut-off).
Twenty five microliters samples were separated on SDS-PAGE gel under reducing conditions using pre-cast gels of 4-12% Bis-Tris (Invitrogen). Following electrophoresis, the proteins were transferred on nitrocellulose membrane. Non-specific binding sites were blocked using 5% skimmed milk in 10 mM phosphate buffer saline (PBS) containing 0.05% Tween-20 for 1 hour at room temperature. The membrane was later incubated with a primary antibody (monoclonal, RDI-MMP-9abm-2A5) at a concentration of 1 ug/ml (in 10 mM PBS, containing 0.5% bovine serum albumin (BSA) and 0.05% Tween-20) for 3 hours at room temperature.
The membranes were washed three times in PBS (5 minutes each wash) to remove non-specific binding and they were incubated with the secondary antibody (Rabbit anti-mouse IgG horseradish peroxidase-conjugated (Dako no. 0260)) at a dilution of 1:5000 for one hour. Detection of specific MMP-9 protein was made by incubating the membrane in ECL™ reagent (electro-chemoluminescence, Roche) and exposing to the X-ray film.

[2] = tested on: ERK; assay: VEGF-induced ERK phosphorylation in BAEC; details: BAEC (not shown)
[3] = tested on: CD44; assay: CD44 cell surface shedding (Western blot of conditioned media); details: serum-starved U-87, 300 ug/ml, 24 hours
Experimental: Decreased cell migration and adhesion on HA was observed when U-87 cells were pretreated with the PCK3145 derivative. This can be interpreted as either a potential downregulation of CD44 expression at the cell surface or by a potential cell surface shedding. The latter hypothesis was tested by incubating serum-starve U-87 cells for 24 hours with the PCK3145 derivative (300 ug/ml), a concentration known to antagonize MMP secretion. The conditioned media was then TCA-precipitated and Westernblotting an immunodetection for a 75 kDa immunoreactive protein using the anti-CD44 antibody was performed. […] This effect is also shown in parallel with MT1-MMP-transfected cells. Such effect has been already reported by many groups and is established as one of the MT1-MMP-mediated functions in the regulation of the ECM adhesion. […] This induction has subsequently been reproduced below. Altogether, these observations provide a rational for the diminished cell migration/adhesion to HA.

[4] = biological target: T1, VEGFR-2 (Homo sapiens, UniProt P35968); assay: VEGF-induced VEGFR-2 phosphorylation in HUVEC (immunoprecipitation, Western blot)
T1 construct: host or cells: HUVEC
Experimental: Immunoprecipitation and immunoblotting procedures. After treatment, cells were washed once with phosphate-buffered saline (PBS) containing 1 mM sodium orthovanadate and were incubated in the same medium for 1 h at 4° C. The cells were solubilized on ice in lysis buffer (150 mM NaCl, 10 mM Tris-HCl, pH 7.4, 1 mM EDTA, 1 mM EGTA, 0.5% Nonidet P-40, 1% Triton X-100) containing 1 mM sodium orthovanadate. The cells were then scraped from the culture dishes and the resulting lysates were clarified by centrifugation at 10,000 g for 10 min; Protein concentrations were determined using the micro bicinchoninic acid method (Pierce). For immunoprecipitation studies, lysates were clarified by a 1 h incubation at 4° C. with a mixture of Protein A/Protein G Sepharose beads. After removal of the Sepharose beads by low-speed centrifugation, identical amounts of protein (200 μg) from each sample were transferred to fresh tubes and incubated in lysis buffer overnight at 4° C. in the presence of 2 μg/ml of specific antibodies. Immunocomplexes were collected by incubating the mixture with 25 μl (50% suspension) of Protein A- (rabbit primary antibody) or Protein G- (mouse primary antibody) Sepharose beads, for 2 h. Nonspecifically-bound material was removed by washing the beads three times in 1 ml of lysis buffer containing 1 mM sodium orthovanadate, and bound material was solubilized in 25 μl of two-fold concentrated Laemmli sample buffer (125 mM Tris-HCl (pH 6.8), 20% glycerol, 4% SDS, 10% β-mercaptoethanol, and 0.00125% bromphenol blue), boiled 5 min, and resolved by SDS-PAGE. […] The immunoreactive bands were quantified by scanning densitometry (Molecular Dynamics).
The multifunctionality of VEGF at the cellular level results from its ability to initiate a diverse, complex and integrated network of signaling pathways via its major receptor, VEGFR-2. […] After each treatment, equal amounts of protein were immunoprecipitated with anti-VEGFR-2 polyclonal antibodies and analysed by Western blotting.

T1 sequence (P35968 20-1356): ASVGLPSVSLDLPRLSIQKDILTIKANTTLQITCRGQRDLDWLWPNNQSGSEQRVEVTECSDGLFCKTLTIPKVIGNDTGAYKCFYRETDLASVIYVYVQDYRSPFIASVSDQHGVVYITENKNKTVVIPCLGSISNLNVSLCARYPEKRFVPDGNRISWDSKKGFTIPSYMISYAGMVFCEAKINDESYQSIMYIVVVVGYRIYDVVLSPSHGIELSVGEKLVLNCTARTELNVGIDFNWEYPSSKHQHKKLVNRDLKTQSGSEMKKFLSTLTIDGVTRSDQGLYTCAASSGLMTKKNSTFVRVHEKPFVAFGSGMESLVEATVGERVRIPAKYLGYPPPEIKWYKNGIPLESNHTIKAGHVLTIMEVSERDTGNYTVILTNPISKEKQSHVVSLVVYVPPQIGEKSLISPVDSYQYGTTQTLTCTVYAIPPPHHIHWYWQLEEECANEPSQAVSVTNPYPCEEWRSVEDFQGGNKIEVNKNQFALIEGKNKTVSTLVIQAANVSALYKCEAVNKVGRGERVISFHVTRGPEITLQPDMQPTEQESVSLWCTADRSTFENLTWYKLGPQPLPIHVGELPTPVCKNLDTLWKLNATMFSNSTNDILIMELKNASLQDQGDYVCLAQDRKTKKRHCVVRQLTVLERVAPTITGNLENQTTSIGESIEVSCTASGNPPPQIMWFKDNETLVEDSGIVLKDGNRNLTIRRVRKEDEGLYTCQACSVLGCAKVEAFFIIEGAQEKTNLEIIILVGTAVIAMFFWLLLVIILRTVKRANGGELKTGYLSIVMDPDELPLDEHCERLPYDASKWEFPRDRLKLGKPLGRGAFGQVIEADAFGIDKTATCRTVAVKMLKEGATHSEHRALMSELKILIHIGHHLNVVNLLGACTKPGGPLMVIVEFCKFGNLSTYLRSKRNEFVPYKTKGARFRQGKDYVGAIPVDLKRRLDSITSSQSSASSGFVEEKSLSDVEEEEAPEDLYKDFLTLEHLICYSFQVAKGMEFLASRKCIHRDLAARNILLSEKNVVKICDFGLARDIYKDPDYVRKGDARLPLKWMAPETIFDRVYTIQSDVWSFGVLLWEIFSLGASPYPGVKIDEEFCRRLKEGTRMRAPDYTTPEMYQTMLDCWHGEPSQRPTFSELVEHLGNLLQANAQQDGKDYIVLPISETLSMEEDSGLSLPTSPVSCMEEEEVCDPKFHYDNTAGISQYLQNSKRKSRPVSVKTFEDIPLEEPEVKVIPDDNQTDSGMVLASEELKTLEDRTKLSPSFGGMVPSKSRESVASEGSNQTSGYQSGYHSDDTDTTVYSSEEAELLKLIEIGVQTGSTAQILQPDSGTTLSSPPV

- phosphorylation of VEGFR-2 induced by VEGF, dose dependence [4]: dose-dependent
- phosphorylation of VEGFR-2 induced by VEGF ([4]; 300 μg/ml, 24 h): inhibited
Sequence: EWQTDNCETCTCYET (cysteine pairing not given here) [PCK3145 derivative, PCK3145 derivative with acetylaminomethyl groups on the three cysteines]
- MMP-9 levels (western blot) [1]: dose-dependent reduction
- ERK phosphorylation induced by VEGF [2]: inhibitory effect was confirmed
- CD44 cell surface shedding [3]: increased
